# Non-standard residues stand in square brackets, D forms with d. Residues, ends and D or L forms follow the SMILES beside them. Sar = CNCC(=O)O
# Legend:
# [1] = tested on: bovine serum albumin (BSA); assay: In vitro protein carbamylation assay (14C-potassium cyanate, scintillation counting); format: biochemical; details: 10 mM nucleophile, 75 μM BSA, 25 μM 14C-Potassium Cyanate, 37° C., 72 hours, n=3
# Protocol: The tests were performed as described below. 200 μL of a 0.5% BSA solution, 200 μL of test solution and 100 μL of a 5 μCi/mL 14 C-Potassium Cyanate solution was mixed in an Eppendorf tube (corresponding to a final concentration of 75 μM BSA, 25 μM 14 C-Potassium Cyanate, and 10 mM nucleophile). Samples run in triplicates (n=3). The Eppendorf tubes were incubated at 37° C. for 72 hours.
# After incubation a volume of 100 μL of each sample was transferred to a new Eppendorf tube containing 100 μL of a 10% trichloroacetic acid (TCA) and kept at 4° C. overnight (for precipitation of BSA). Subsequently, the precipitated BSA was separated from the buffer by centrifugation (10000 rpm, 30 seconds). The supernatant was removed and the BSA pellet 10 was resuspended in 200 μL of a 10% solution of cold TCA (4° C.). The pellet was recovered by centrifugation (10000 rpm, 30 seconds) and supernatant was discarded. The BSA pellet was resuspended in 100 μL purified water (MilliQ) and transferred to a scintillation vial. The Eppendorf tube (previously containing the BSA pellet) was rinsed with an additional 100 μL purified water which al was transferred to the relevant scintillation vial.
# [2] = Skin homogenate study (degradation half-life, LC-MS/MS); format: in vitro ADME, human; details: pooled human skin homogenate, 37° C., compound working solution 40 μg/mL mixed with equal volume of homogenate
# Protocol: To identify which of the dipeptides was readily subject to degradation by proteases and other cell processes in the skin, a number of compounds where tested in a skin homogenate study as described below and the results are listed in table 3.
# Dermatomed human skin from multiple skin donors was pooled, homogenized, and adjusted to a tissue concentration of 100 mg tissue per mL of homogenate. The homogenate was used immediately following preparation without any additional freeze/thaw cycles. Working solutions of each compound were prepared in Dulbecco's phosphate-buffered saline (DPBS) at 40 μg/mL. All solutions were pre-heated to 37° C. Equal volumes of skin homogenate and compound working solution were combined, mixed, held at 37° C., and sampled at 0, 15, 30, 60, 120, and 240 minutes. Samples were quenched with acidic acetonitrile, centrifuged, and prepared for LC-MS/MS analysis. Peak areas of each compound at each time-point were determined by LC-MS/MS.
# The individual half-life of each dipeptide was determined.
# The nature of the experiment should be considered indicative of the relative stability of each of the compounds rather than an absolute correlation to what would happen in vivo. The process of homogenizing the skin is likely to greatly accelerate the degradation. However, it is clear that there is substantial variation in the relative rates for each dipeptide. (See Table 3)
# [3] = Aqueous stability in HBSS buffer at 40° C. (HPLC-UV); format: physicochemical; details: 3% wt/wt or 0.4% wt/wt in HBSS buffer, glass vials, 40° C., HPLC-UV, in % (unit assumed)
# Protocol: An important aspect of formulating a stable topical product. Data in Table 4 below gives 1 month and 3 month stability data at 40° C. Compounds were dissolved at 3% wt/wt or 0.4% wt/wt (if 3% was not possible) in HBSS buffer and stored in glass vials at temperature. Samples were subsequently analyzed by HPLC-UV.
SMILES,Degree of carbamylation (% relative to HBSS control) [1],Half life in skin homogenate [2],1 month aqueous stability at 40° C. [3],3 month aqueous stability at 40° C. [3]
COC(=O)[C@H](Cc1ccccc1)NC(=O)[C@@H](N)CC(=O)O [Aspartame] (H-Asp-Phe-OMe),30.4 % relative to HBSS control,–,–,–
C[C@@H](N)C(=O)NCC(=O)O [Ala-Gly (D)] (H-[dA]-Gly-OH),–,>8 h,–,–
C[C@H](N)C(=O)N[C@@H](C)C(=O)O [Ala-Ala] (H-Ala-Ala-OH),–,0.383 h,–,–
"NC(=O)CC[C@H](N)C(=O)O [Glutamine, reference compound]",74.39 % relative to HBSS control,–,–,–
NCCCC[C@H](N)C(=O)N1CCC[C@H]1C(=O)O [Lys-Pro] (H-Lys-Pro-OH),28.6 % relative to HBSS control,0.867 h,–,–
NCC(=O)N[C@@H](Cc1cnc[nH]1)C(=O)O [Gly-His] (H-Gly-His-OH),22.6 % relative to HBSS control,>8 h,99.8,79.3
CC(C)C[C@H](NC(=O)[C@@H](N)Cc1cnc[nH]1)C(=O)O [His-leu] (H-His-Leu-OH),27.18 % relative to HBSS control,–,–,–
NCCNCC(=O)O [N-β-aminoethyl-Gly],29.7 % relative to HBSS control,–,–,–
NCC(=O)N[C@@H](CCC(N)=O)C(=O)O [Gly-Gln] (H-Gly-Gln-OH),32.99 % relative to HBSS control,–,–,–
NCCC(=O)N[C@@H](Cc1c[nH]cn1)C(=O)O [Ala(b)-His (L-Carnosine)],72.63 % relative to HBSS control,–,98.4,99.7
CC(C)[C@H](N)C(=O)N[C@@H](Cc1ccc(O)cc1)C(=O)O [Val-Tyr] (H-Val-Tyr-OH),28.9 % relative to HBSS control,<0.125 h,100.7,98.2
"N=C(N)NCCC[C@H](N)C(=O)O [Arg, Arginine, reference compound]",52.4 % relative to HBSS control,–,–,–
"C[C@H](N)C(=O)O [Alanine, reference compound]",93.54 % relative to HBSS control,–,–,–
NC(=O)CC(NC(=O)C(N)Cc1c[nH]c2ccccc12)C(=O)O (stereo not drawn) [Trp-Asn] (H-Trp-Asn-OH; configuration not given here),–,0.75 h,–,–
NCC(=O)N[C@@H](CCC(=O)O)C(=O)O [Gly-Glu] (H-Gly-Glu-OH),–,–,99.0,99.7
NC(Cc1c[nH]c2ccccc12)C(=O)N1CCCC1C(=O)O (stereo not drawn) [Trp-Pro],–,0.567 h,–,–
"NCCS(=O)(=O)O [Taurine, reference compound]",58.17 % relative to HBSS control,–,–,–
O=C(O)[C@@H]1CCCN1C(=O)[C@@H]1CCCN1 [Pro-Pro] (H-Pro-Pro-OH),–,1.93 h,–,–
"CC(C)C[C@H](NC(=O)[C@@H](O)[C@H](N)Cc1ccccc1)C(=O)O [Bestatin, reference compound]",53.4 % relative to HBSS control,–,–,–
N[C@@H](Cc1c[nH]c2ccccc12)C(=O)NCC(=O)O [Trp-Gly] (H-Trp-Gly-OH),–,1.07 h,–,–
N[C@@H](CC(=O)O)C(=O)N[C@@H](Cc1ccccc1)C(=O)O [Asp-Phe] (H-Asp-Phe-OH),–,1.28 h,–,–

SMILES,Degree of carbamylation (% relative to HBSS control) [1],Half life in skin homogenate [2],1 month aqueous stability at 40° C. [3],3 month aqueous stability at 40° C. [3]
NCC(=O)NCC(=O)O [Gly-Gly] (H-Gly-Gly-OH),–,>8 h,–,–
"NCCCC[C@H](N)C(=O)O [Lysine, reference compound]",71.63 % relative to HBSS control,–,–,–
N[C@@H](CO)C(=O)N1CCC[C@H]1C(=O)O [Ser-Pro] (H-Ser-Pro-OH),26.4 % relative to HBSS control,0.683 h,95.5,88.5
"N[C@@H](Cc1c[nH]cn1)C(=O)O [Histidine, reference compound]",61.1 % relative to HBSS control,–,–,–
NCC(=O)N[C@@H](CC(=O)O)C(=O)O [Gly-Asp] (H-Gly-Asp-OH),–,>8 h,–,–
CC[C@H](C)[C@H](N)C(=O)N1CCC[C@H]1C(=O)O [Ile-Pro] (H-Ile-Pro-OH),41.4 % relative to HBSS control,2.25 h,99.1,102.0
"NC(=O)NCCC[C@H](N)C(=O)O [Citrulline, reference compound]",81.7 % relative to HBSS control,–,–,–
NCC(=O)NC(CO)C(=O)O (stereo not drawn) [Gly-Ser],33.1 % relative to HBSS control,–,97.8,70.7
N[C@@H](Cc1ccc(O)cc1)C(=O)N1CCC[C@H]1C(=O)O [Tyr-Pro] (H-Tyr-Pro-OH),32.8 % relative to HBSS control,0.483 h,–,–
C[C@H](N)C(=O)NCC(=O)O [Ala-Gly] (H-Ala-Gly-OH),–,1 h,–,–
NC(N)=NCCC[C@H](NC(=O)[C@@H](N)Cc1ccc(O)cc1)C(=O)O [Tyr-Arg],25.96 % relative to HBSS control,–,–,–
CN(CC(=O)O)C(=O)CN [Gly-Sar] (H-Gly-[Sar]-OH),–,>8 h,–,–
CC(C)[C@H](NC(=O)CN)C(=O)O [Gly-Val] (H-Gly-Val-OH),–,0.8 h,–,–
"Cl.N=C(N)NCCC[C@H](N)C(=O)O [Arg*HCl, reference compound]",66.1 % relative to HBSS control,–,–,–
C[C@H](NC(=O)[C@@H](N)Cc1ccc(O)cc1)C(=O)O [Tyr-Ala],26.1 % relative to HBSS control,0.833 h,100.4,94.0
C[C@H](N)C(=O)N[C@H](C)C(=O)O [Ala-D-Ala] (H-Ala-[dA]-OH),–,>8 h,–,–
NCC(=O)N1CCC[C@H]1C(=O)O [Gly-Pro] (H-Gly-Pro-OH),–,>8 h,–,–
CC(C)[C@H](N)C(=O)N1CCC[C@H]1C(=O)O [Val-Pro] (H-Val-Pro-OH),22.1 % relative to HBSS control,0.65 h,90.5,80.9
C[C@H](NC(=O)CN)C(=O)O [Gly-Ala] (H-Gly-Ala-OH),35.27 % relative to HBSS control,–,–,–
"CN(CC(=O)O)C(=N)N [Creatine, reference compound]",103.92 % relative to HBSS control,–,–,–

# — patent US20250222063A1, “TOPICAL FORMULATION FOR USE IN THE TREATMENT OR PREVENTION OF DRY ITCHY SKIN” (MC2 THERAPEUTICS LTD, priority 2022, published 2025)
